According to patent publication US20120121591A1 (priority 2009, published 2012):
Read-outs that look alike come from different tables or passages of the source.

Assays:
Type in all cases: cell-based
[1] = tested on: IFN-g secretion from T cells in human whole blood
[2] = tested on: IL-2 secretion from T cells in human whole blood; conditions: read-out: WB (IL-2) IC50 (nM, Avg)
hKv1.3 = hKv1.3 (Homo sapiens, UniProt P22001); test: cell-based; conditions: Kv1.3 (IWQ) IC50 (nM, Avg)
[3] = read-out: WB (IFNg) IC50 (nM, Avg)

hKv1.3, sequence (P22001 whole entry): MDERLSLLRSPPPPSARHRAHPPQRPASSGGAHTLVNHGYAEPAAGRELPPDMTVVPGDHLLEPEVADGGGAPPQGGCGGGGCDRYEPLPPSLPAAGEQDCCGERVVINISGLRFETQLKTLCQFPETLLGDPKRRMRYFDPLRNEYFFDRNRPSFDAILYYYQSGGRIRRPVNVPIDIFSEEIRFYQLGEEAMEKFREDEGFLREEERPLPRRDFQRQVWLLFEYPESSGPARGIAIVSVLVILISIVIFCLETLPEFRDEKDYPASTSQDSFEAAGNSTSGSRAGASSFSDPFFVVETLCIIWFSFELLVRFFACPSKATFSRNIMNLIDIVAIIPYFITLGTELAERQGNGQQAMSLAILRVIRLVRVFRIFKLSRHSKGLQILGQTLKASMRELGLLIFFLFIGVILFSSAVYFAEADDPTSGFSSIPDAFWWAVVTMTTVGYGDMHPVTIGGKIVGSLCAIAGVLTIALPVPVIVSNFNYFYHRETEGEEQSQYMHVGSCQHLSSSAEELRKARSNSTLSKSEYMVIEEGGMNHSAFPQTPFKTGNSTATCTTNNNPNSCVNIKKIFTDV

Compound	IC50 [1, 3] [nM]	IC50 [2] [nM]	IC50 (hKv1.3) [nM]	IC50 ([1]; read-out: WB (IFNg) IC5- (nM, Avg)) [nM]
CC[C@H](C)[C@@H]1NC(=O)[C@@H](NC(=O)[C@H](CO)NC(=O)[C@@H](N)CCCNC(=N)N)CSSC[C@@H](C(=O)O)NC(=O)[C@H]([C@@H](C)O)NC(=O)CNC(=O)[C@@H]2CSSC[C@@H]3NC(=O)[C@H](CCC(N)=O)NC(=O)[C@H](Cc4ccccc4)NC(=O)[C@H](C)NC(=O)[C@H]([C@@H](C)O)NC(=O)[C@H](CSSC[C@H](NC(=O)[C@H](Cc4ccccc4)NC(=O)[C@H](CCCNC(=N)N)NC(=O)[C@H](CC(C)C)NC(=O)[C@H](CCCNC(=N)N)NC(=O)[C@H](Cc4ccc(O)cc4)NC(=O)[C@H](CCCCN)NC(=O)[C@H](CCSC)NC(=O)[C@H](CO)NC(=O)[C@H](Cc4c[nH]cn4)NC(=O)[C@H](CCCCN)NC3=O)C(=O)N[C@@H](CCCNC(=N)N)C(=O)N[C@@H](CCCCN)C(=O)N[C@@H]([C@@H](C)O)C(=O)N2)NC(=O)[C@H](CCCNC(=N)N)NC(=O)[C@H](CO)NC(=O)[C@H](CCCCN)NC(=O)[C@@H]2CCCN2C(=O)[C@H]([C@@H](C)CC)NC(=O)[C@H]([C@@H](C)O)NC(=O)[C@H](CC(=O)O)NC1=O [[Arg26]ShK]	0.572	0.208	0.279	
CC[C@H](C)[C@@H]1NC(=O)[C@@H](NC(=O)[C@H](CO)NC(=O)[C@@H](N)CCCNC(=N)N)CSSC[C@@H](C(=O)O)NC(=O)[C@H]([C@@H](C)O)NC(=O)CNC(=O)[C@@H]2CSSC[C@@H]3NC(=O)[C@H](CCC(N)=O)NC(=O)[C@H](Cc4ccccc4)NC(=O)[C@H](C)NC(=O)[C@H]([C@@H](C)O)NC(=O)[C@H](CSSC[C@H](NC(=O)[C@H](Cc4ccccc4)NC(=O)[C@H](CO)NC(=O)[C@H](CC(C)C)NC(=O)[C@H](CCCNC(=N)N)NC(=O)[C@H](Cc4ccc(O)cc4)NC(=O)[C@H](CCCCN)NC(=O)[C@H](CCSC)NC(=O)[C@H](CO)NC(=O)[C@H](Cc4c[nH]cn4)NC(=O)[C@H](CCCCN)NC3=O)C(=O)N[C@@H](CCCNC(=N)N)C(=O)N[C@@H](CCCCN)C(=O)N[C@@H](CCCNC(=N)N)C(=O)N2)NC(=O)[C@H](CCCNC(=N)N)NC(=O)[C@H](CO)NC(=O)[C@H](CCCCN)NC(=O)[C@@H]2CCCN2C(=O)[C@H]([C@@H](C)CC)NC(=O)[C@H]([C@@H](C)O)NC(=O)[C@H](CC(=O)O)NC1=O [[Arg31]ShK]	54.8	12	3.3	
CC[C@H](C)[C@@H]1NC(=O)[C@@H](NC(=O)[C@H](CO)NC(=O)[C@@H](N)CCCNC(=N)N)CSSC[C@@H](C(=O)O)NC(=O)[C@H]([C@@H](C)O)NC(=O)CNC(=O)[C@@H]2CSSC[C@@H]3NC(=O)[C@H](CCC(N)=O)NC(=O)[C@H](Cc4ccccc4)NC(=O)[C@H](C)NC(=O)[C@H]([C@@H](C)O)NC(=O)[C@H](CSSC[C@H](NC(=O)[C@H](Cc4ccccc4)NC(=O)[C@H](CO)NC(=O)[C@H](CC(C)C)NC(=O)[C@H](CCCNC(=N)N)NC(=O)[C@H](Cc4ccc(O)cc4)NC(=O)[C@H](CCCCN)NC(=O)[C@H](CCSC)NC(=O)[C@H](CO)NC(=O)[C@H](Cc4c[nH]cn4)NC(=O)[C@H](CCCCN)NC3=O)C(=O)N[C@@H](CCCCN)C(=O)N[C@@H](CCCCN)C(=O)N[C@@H]([C@@H](C)O)C(=O)N2)NC(=O)[C@H](CCCNC(=N)N)NC(=O)[C@H](CO)NC(=O)[C@H](CCCCN)NC(=O)[C@@H]2CCCN2C(=O)[C@H]([C@@H](C)CC)NC(=O)[C@H]([C@@H](C)O)NC(=O)[C@H](CC(=O)O)NC1=O [[Lys29]ShK]	0.071	0.04	0.158	
CC[C@H](C)[C@@H]1NC(=O)[C@@H](NC(=O)[C@H](CO)NC(=O)[C@@H](N)CCCNC(=N)N)CSSC[C@@H](C(=O)O)NC(=O)[C@H]([C@@H](C)O)NC(=O)CNC(=O)[C@@H]2CSSC[C@@H]3NC(=O)[C@H](CCC(N)=O)NC(=O)[C@H](Cc4ccccc4)NC(=O)[C@H](C)NC(=O)[C@H]([C@@H](C)O)NC(=O)[C@H](CSSC[C@H](NC(=O)[C@H](Cc4ccccc4)NC(=O)[C@H](CO)NC(=O)[C@H](CC(C)C)NC(=O)[C@H](CCCNC(=N)N)NC(=O)[C@H](Cc4ccc(O)cc4)NC(=O)[C@H](CCCCN)NC(=O)[C@H](CCSC)NC(=O)[C@H](CCC(=O)O)NC(=O)[C@H](Cc4c[nH]cn4)NC(=O)[C@H](CCCCN)NC3=O)C(=O)N[C@@H](CCCNC(=N)N)C(=O)N[C@@H](CCCCN)C(=O)N[C@@H]([C@@H](C)O)C(=O)N2)NC(=O)[C@H](CCCNC(=N)N)NC(=O)[C@H](CO)NC(=O)[C@H](CCCCN)NC(=O)[C@@H]2CCCN2C(=O)[C@H]([C@@H](C)CC)NC(=O)[C@H]([C@@H](C)O)NC(=O)[C@H](CC(=O)O)NC1=O [[Glu20]ShK]		92	100	92
CCCC[C@@H]1NC(=O)[C@H](CO)NC(=O)[C@H](Cc2c[nH]cn2)NC(=O)[C@H](CCCCN)NC(=O)[C@@H]2CSSC[C@@H]3NC(=O)[C@H]([C@@H](C)O)NC(=O)[C@H](CCCNC(=N)N)NC(=O)[C@H](CCCCN)NC(=O)[C@H](CSSC[C@H](NC(=O)[C@H](CCCNC(=N)N)NC(=O)[C@H](CO)NC(=O)[C@H](CCCCN)NC(=O)[C@@H]4CCCN4C(=O)[C@H]([C@@H](C)CC)NC(=O)[C@H]([C@@H](C)O)NC(=O)[C@H](CC(=O)O)NC(=O)[C@H]([C@@H](C)CC)NC(=O)[C@@H](NC(=O)[C@H](CO)NC(=O)[C@@H](N)CCCNC(=N)N)CSSC[C@@H](C(N)=O)NC(=O)[C@H]([C@@H](C)O)NC(=O)CNC3=O)C(=O)N[C@@H]([C@@H](C)O)C(=O)N[C@@H](C)C(=O)N[C@@H](Cc3ccccc3)C(=O)N[C@@H](CCCCN)C(=O)N2)NC(=O)[C@H](Cc2ccccc2)NC(=O)[C@H](Cc2cccc3ccccc23)NC(=O)[C@H](CC(C)C)NC(=O)[C@H](CCCNC(=N)N)NC(=O)[C@H](Cc2ccc(O)cc2)NC(=O)[C@H](CCCCN)NC1=O [[Lys16,29; 1-Nal26;Arg30;Nle21]ShK-amide]	8.22	9.44	2.33	
CC[C@H](C)[C@@H]1NC(=O)[C@@H](NC(=O)[C@H](CO)NC(=O)[C@@H](N)CCCNC(=N)N)CSSC[C@@H](C(=O)O)NC(=O)[C@H]([C@@H](C)O)NC(=O)CNC(=O)[C@@H]2CSSC[C@@H]3NC(=O)[C@H](CCC(N)=O)NC(=O)[C@H](Cc4ccccc4)NC(=O)[C@H](CCCCN)NC(=O)[C@H]([C@@H](C)O)NC(=O)[C@H](CSSC[C@H](NC(=O)[C@H](Cc4ccccc4)NC(=O)[C@H](CO)NC(=O)[C@H](CC(C)C)NC(=O)[C@H](CCCNC(=N)N)NC(=O)[C@H](Cc4ccc(O)cc4)NC(=O)[C@H](CCCCN)NC(=O)[C@H](CCSC)NC(=O)[C@H](CO)NC(=O)[C@H](Cc4c[nH]cn4)NC(=O)[C@H](CCCCN)NC3=O)C(=O)N[C@@H](CCCNC(=N)N)C(=O)N[C@@H](CCCCN)C(=O)N[C@@H]([C@@H](C)O)C(=O)N2)NC(=O)[C@H](CCCNC(=N)N)NC(=O)[C@H](CO)NC(=O)[C@H](CCCCN)NC(=O)[C@@H]2CCCN2C(=O)[C@H]([C@@H](C)CC)NC(=O)[C@H]([C@@H](C)O)NC(=O)[C@H](CC(=O)O)NC1=O [[Lys14]ShK]	0.202	0.075	0.073	
CCC[C@@H]1NC(=O)[C@H](CO)NC(=O)[C@H](Cc2c[nH]cn2)NC(=O)[C@H](CCCCN)NC(=O)[C@@H]2CSSC[C@@H]3NC(=O)[C@H]([C@@H](C)O)NC(=O)[C@H](CCCCN)NC(=O)[C@H](CCCNC(=N)N)NC(=O)[C@H](CSSC[C@H](NC(=O)[C@H](CCCNC(=N)N)NC(=O)[C@H](CO)NC(=O)[C@H](CCCCN)NC(=O)[C@@H]4CCCN4C(=O)[C@H]([C@@H](C)CC)NC(=O)[C@H]([C@@H](C)O)NC(=O)[C@H](CC(=O)O)NC(=O)[C@H]([C@@H](C)CC)NC(=O)[C@@H](NC(=O)[C@H](CO)NC(=O)[C@@H](N)CCCNC(=N)N)CSSC[C@@H](C(=O)N[C@@H](CO)C(N)=O)NC(=O)[C@H]([C@@H](C)O)NC(=O)CNC3=O)C(=O)N[C@@H]([C@@H](C)O)C(=O)N[C@@H](C)C(=O)N[C@@H](Cc3ccccc3)C(=O)N[C@@H](CCCCN)C(=O)N2)NC(=O)[C@H](Cc2ccccc2)NC(=O)[C@H](CO)NC(=O)[C@H](CC(C)C)NC(=O)[C@H](CCCNC(=N)N)NC(=O)[C@H](Cc2ccc(O)cc2)NC(=O)[C@H](CCCCN)NC1=O [[Lys16,Nva21]ShK-Ser-amide]	0.662	0.467	0.09	
CCCC[C@@H]1NC(=O)[C@H](CO)NC(=O)[C@H](Cc2c[nH]cn2)NC(=O)[C@H](CCCNC(=N)N)NC(=O)[C@@H]2CSSC[C@@H]3NC(=O)[C@H]([C@@H](C)O)NC(=O)[C@H](CCCNC(=N)N)NC(=O)[C@H](CCCCN)NC(=O)[C@H](CSSC[C@H](NC(=O)[C@H](CCCNC(=N)N)NC(=O)[C@H](CO)NC(=O)[C@H](CCCCN)NC(=O)[C@@H]4CCCN4C(=O)[C@H]([C@@H](C)CC)NC(=O)[C@H]([C@@H](C)O)NC(=O)[C@H](CC(=O)O)NC(=O)[C@H](CCC(=O)O)NC(=O)[C@@H](NC(=O)[C@H](CO)NC(=O)[C@@H](N)CCCNC(=N)N)CSSC[C@@H](C(N)=O)NC(=O)[C@H]([C@@H](C)O)NC(=O)CNC3=O)C(=O)N[C@@H]([C@@H](C)O)C(=O)N[C@@H](C)C(=O)N[C@@H](Cc3ccccc3)C(=O)N[C@@H](CCCCN)C(=O)N2)NC(=O)[C@H](Cc2ccccc2)NC(=O)[C@H](CO)NC(=O)[C@H](CC(C)C)NC(=O)[C@H](CCCNC(=N)N)NC(=O)[C@H](Cc2ccc(O)cc2)NC(=O)[C@H](CCCCN)NC1=O	1.33	1.96	0.269	
CC[C@H](C)[C@@H]1NC(=O)[C@@H](NC(=O)[C@H](CO)NC(=O)[C@@H](N)CCCNC(=N)N)CSSC[C@@H](C(N)=O)NC(=O)[C@H]([C@@H](C)O)NC(=O)CNC(=O)[C@@H]2CSSC[C@@H]3NC(=O)[C@H](CCCCN)NC(=O)[C@H](C)NC(=O)[C@H](C)NC(=O)[C@H]([C@@H](C)O)NC(=O)[C@H](CSSC[C@H](NC(=O)[C@H](Cc4ccccc4)NC(=O)[C@H](CO)NC(=O)[C@H](CC(C)C)NC(=O)[C@H](CCCNC(=N)N)NC(=O)[C@H](Cc4ccc(O)cc4)NC(=O)[C@H](CCCCN)NC(=O)[C@H](CCSC)NC(=O)[C@H](CO)NC(=O)[C@H](Cc4c[nH]cn4)NC(=O)[C@H](CCCCN)NC3=O)C(=O)N[C@@H](CCCNC(=N)N)C(=O)N[C@@H](CCCCN)C(=O)N[C@@H]([C@@H](C)O)C(=O)N2)NC(=O)[C@H](CCCNC(=N)N)NC(=O)[C@H](CO)NC(=O)[C@H](CCCCN)NC(=O)[C@@H]2CCCN2C(=O)[C@H]([C@@H](C)CC)NC(=O)[C@H]([C@@H](C)O)NC(=O)[C@H](CC(=O)O)NC1=O [[Ala15,Lys16]ShK-amide]	0.193	0.167	0.091	
